Assay results taken from patent publication US10899709B2, “Novel-alkynyl-substituted 3-phenylpyrrolidine-2,4-diones and use thereof as herbicides” (BAYER CROPSCIENCE AKTIENGESELLSCHAFT, priority 2015, dated 2021).

How the values were obtained:
Format in all cases: in vivo
Alopecurus myosuroides [1] = experiment: Pre-emergence herbicidal effect; settings: visual score after 3 weeks
Source text: (§1) Seeds of monocotyledonous and dicotyledonous weed plants and crop plants are laid out in wood-fibre pots in sandy loam and covered with soil. The compounds according to the invention formulated in the form of wettable powders (WP) or as emulsion concentrates (EC) are then applied as aqueous suspension or emulsion at a water application rate of 600 to 800 l/ha (converted) with the addition of 0.2% wetting agent to the surface of the covering soil. After the treatment, the pots are placed in a greenhouse and kept under good growth conditions for the trial plants. The damage to the test plants is scored visually after a test period of 3 weeks by comparison with untreated controls (herbicidal activity in percent (%): 100% activity=the plants have died, 0% activity=like control plants).

Cyperus esculentus = experiment: Pre-emergence herbicidal effect; settings: for Pre-emergence effectiveness CYPES: 320 g/ha, visual score after 3 weeks
Source text: as §1

Echinochloa crus-galli [2] = experiment: Pre-emergence herbicidal effect; settings: visual score after 3 weeks
Source text: as §1

Lolium multiflorum [3] = experiment: Pre-emergence herbicidal effect; settings: visual score after 3 weeks
Source text: as §1

Setaria viridis [4] = experiment: Pre-emergence herbicidal effect; settings: for Pre-emergence effectiveness SETVI: visual score after 3 weeks
Source text: as §1

Alopecurus myosuroides [5] = experiment: Post-emergence herbicidal effect; settings: visual assessment after about 3 weeks
Description: (§2) Seeds of monocotyledonous and dicotyledonous weed and crop plants are laid out in sandy loam in wood-fibre pots, covered with soil and cultivated in a greenhouse under good growth conditions. 2 to 3 weeks after sowing, the test plants are treated at the one-leaf stage. The compounds according to the invention, formulated in the form of wettable powders (WP) or as emulsion concentrates (EC), are then sprayed as aqueous suspension or emulsion at a water application rate of 600 to 800 l/ha (converted) with the addition of 0.2% of wetting agent onto the green parts of the plants. After the test plants have been left to stand in the greenhouse under optimal growth conditions for about 3 weeks, the action of the preparations is assessed visually in comparison to untreated controls (herbicidal action in percent (%): 100% activity=the plants have died, 0% activity=like control plants).

Echinochloa crus-galli [6] = experiment: Post-emergence herbicidal effect; settings: visual assessment after about 3 weeks
Description: as §2

Lolium multiflorum [7] = experiment: Post-emergence herbicidal effect; settings: visual assessment after about 3 weeks
Description: as §2

Setaria viridis [8] = experiment: Post-emergence herbicidal effect; settings: visual assessment after about 3 weeks
Description: as §2

Avena fatua [9] = experiment: Pre-emergence herbicidal effect; settings: for Pre-emergence effectiveness AVEFA: visual score after 3 weeks
Source text: as §1

Avena fatua [10] = experiment: Post-emergence herbicidal effect; settings: visual assessment after about 3 weeks
Description: as §2

CCc1cc(C#CC2CC2)cc(C)c1C1=C(OC(=O)C(C)C)C2(CCC(COC)C2)NC1=O (mixture of isomers) [Example Ia-10]
Pre-emergence effectiveness ALOMY (Alopecurus myosuroides [1]; 80 g/ha): 90% | Pre-emergence effectiveness ALOMY (Alopecurus myosuroides [1]; 320 g/ha): 100% | Pre-emergence effectiveness CYPES (Cyperus esculentus): 80% | Pre-emergence effectiveness ECHCG (Echinochloa crus-galli [2]; 80 g/ha): 100% | Pre-emergence effectiveness ECHCG (Echinochloa crus-galli [2]; 320 g/ha): 100% | Pre-emergence effectiveness LOLMU (Lolium multiflorum [3]; 80 g/ha): 80% | Pre-emergence effectiveness LOLMU (Lolium multiflorum [3]; 320 g/ha): 100% | Pre-emergence effectiveness SETVI (Setaria viridis [4]; 80 g/ha): 90% | Pre-emergence effectiveness SETVI (Setaria viridis [4]; 320 g/ha): 100% | Post-emergence effectiveness ALOMY (Alopecurus myosuroides [5]; 80 g/ha): 80% | Post-emergence effectiveness ECHCG (Echinochloa crus-galli [6]; 20 g/ha): 90% | Post-emergence effectiveness ECHCG (Echinochloa crus-galli [6]; 80 g/ha): 90% | Post-emergence effectiveness LOLMU (Lolium multiflorum [7]; 20 g/ha): 80% | Post-emergence effectiveness LOLMU (Lolium multiflorum [7]; 80 g/ha): 90% | Post-emergence effectiveness SETVI (Setaria viridis [8]; 20 g/ha): 100% | Post-emergence effectiveness SETVI (Setaria viridis [8]; 80 g/ha): 100%

CC#Cc1cc(C)c(C2=C(O)C3(CCC(COC)C3)NC2=O)c(CC)c1 (stereo not shown) [Example I-10]
Pre-emergence effectiveness ALOMY (Alopecurus myosuroides [1]; 80 g/ha): 90% | Pre-emergence effectiveness ALOMY (Alopecurus myosuroides [1]; 320 g/ha): 100% | Pre-emergence effectiveness AVEFA (Avena fatua [9]; 80 g/ha): 80% | Pre-emergence effectiveness AVEFA (Avena fatua [9]; 320 g/ha): 100% | Pre-emergence effectiveness ECHCG (Echinochloa crus-galli [2]; 80 g/ha): 100% | Pre-emergence effectiveness ECHCG (Echinochloa crus-galli [2]; 320 g/ha): 100% | Pre-emergence effectiveness LOLMU (Lolium multiflorum [3]; 80 g/ha): 100% | Pre-emergence effectiveness LOLMU (Lolium multiflorum [3]; 320 g/ha): 100% | Pre-emergence effectiveness SETVI (Setaria viridis [4]; 80 g/ha): 80% | Pre-emergence effectiveness SETVI (Setaria viridis [4]; 320 g/ha): 100% | Post-emergence effectiveness ALOMY (Alopecurus myosuroides [5]; 20 g/ha): 100% | Post-emergence effectiveness ALOMY (Alopecurus myosuroides [5]; 80 g/ha): 100% | Post-emergence effectiveness AVEFA (Avena fatua [10]; 20 g/ha): 100% | Post-emergence effectiveness AVEFA (Avena fatua [10]; 80 g/ha): 100% | Post-emergence effectiveness ECHCG (Echinochloa crus-galli [6]; 20 g/ha): 100% | Post-emergence effectiveness ECHCG (Echinochloa crus-galli [6]; 80 g/ha): 100% | Post-emergence effectiveness LOLMU (Lolium multiflorum [7]; 20 g/ha): 100% | Post-emergence effectiveness LOLMU (Lolium multiflorum [7]; 80 g/ha): 100% | Post-emergence effectiveness SETVI (Setaria viridis [8]; 20 g/ha): 90% | Post-emergence effectiveness SETVI (Setaria viridis [8]; 80 g/ha): 100%

CCc1cc(C#CC2CC2)cc(C)c1C1=C(O)C2(CCC(COC)C2)NC1=O (stereo not shown) [Example I-12]
Pre-emergence effectiveness ALOMY (Alopecurus myosuroides [1]; 320 g/ha): 100% | Pre-emergence effectiveness AVEFA (Avena fatua [9]; 80 g/ha): 100% | Pre-emergence effectiveness AVEFA (Avena fatua [9]; 320 g/ha): 80% | Pre-emergence effectiveness ECHCG (Echinochloa crus-galli [2]; 80 g/ha): 90% | Pre-emergence effectiveness ECHCG (Echinochloa crus-galli [2]; 320 g/ha): 100% | Pre-emergence effectiveness LOLMU (Lolium multiflorum [3]; 80 g/ha): 100% | Pre-emergence effectiveness LOLMU (Lolium multiflorum [3]; 320 g/ha): 100% | Pre-emergence effectiveness SETVI (Setaria viridis [4]; 80 g/ha): 90% | Pre-emergence effectiveness SETVI (Setaria viridis [4]; 320 g/ha): 100% | Post-emergence effectiveness ALOMY (Alopecurus myosuroides [5]; 80 g/ha): 90% | Post-emergence effectiveness AVEFA (Avena fatua [10]; 20 g/ha): 80% | Post-emergence effectiveness AVEFA (Avena fatua [10]; 80 g/ha): 80% | Post-emergence effectiveness ECHCG (Echinochloa crus-galli [6]; 20 g/ha): 100% | Post-emergence effectiveness ECHCG (Echinochloa crus-galli [6]; 80 g/ha): 100% | Post-emergence effectiveness LOLMU (Lolium multiflorum [7]; 80 g/ha): 90% | Post-emergence effectiveness SETVI (Setaria viridis [8]; 20 g/ha): 100% | Post-emergence effectiveness SETVI (Setaria viridis [8]; 80 g/ha): 100%

CCOC(=O)OC1=C(c2c(C)cc(C#CC3CC3)cc2C)C(=O)NC12CCC(COC)C2 (stereo not shown) [Example Ia-2]
Pre-emergence effectiveness ALOMY (Alopecurus myosuroides [1]; 80 g/ha): 80% | Pre-emergence effectiveness ALOMY (Alopecurus myosuroides [1]; 320 g/ha): 100% | Pre-emergence effectiveness CYPES (Cyperus esculentus): 100% | Pre-emergence effectiveness ECHCG (Echinochloa crus-galli [2]; 80 g/ha): 100% | Pre-emergence effectiveness ECHCG (Echinochloa crus-galli [2]; 320 g/ha): 100% | Pre-emergence effectiveness LOLMU (Lolium multiflorum [3]; 320 g/ha): 80% | Pre-emergence effectiveness SETVI (Setaria viridis [4]; 80 g/ha): 90% | Pre-emergence effectiveness SETVI (Setaria viridis [4]; 320 g/ha): 100% | Post-emergence effectiveness ECHCG (Echinochloa crus-galli [6]; 80 g/ha): 80% | Post-emergence effectiveness SETVI (Setaria viridis [8]; 80 g/ha): 80%

CC#Cc1cc(C)c(C2=C(OC(=O)C(C)C)C3(CCC(COC)C3)NC2=O)c(CC)c1 (stereo not shown) [Example Ia-8]
Pre-emergence effectiveness ALOMY (Alopecurus myosuroides [1]; 80 g/ha): 100% | Pre-emergence effectiveness ALOMY (Alopecurus myosuroides [1]; 320 g/ha): 100% | Pre-emergence effectiveness AVEFA (Avena fatua [9]; 80 g/ha): 90% | Pre-emergence effectiveness AVEFA (Avena fatua [9]; 320 g/ha): 90% | Pre-emergence effectiveness ECHCG (Echinochloa crus-galli [2]; 80 g/ha): 100% | Pre-emergence effectiveness ECHCG (Echinochloa crus-galli [2]; 320 g/ha): 100% | Pre-emergence effectiveness LOLMU (Lolium multiflorum [3]; 80 g/ha): 100% | Pre-emergence effectiveness LOLMU (Lolium multiflorum [3]; 320 g/ha): 100% | Pre-emergence effectiveness SETVI (Setaria viridis [4]; 80 g/ha): 80% | Pre-emergence effectiveness SETVI (Setaria viridis [4]; 320 g/ha): 100% | Post-emergence effectiveness ALOMY (Alopecurus myosuroides [5]; 20 g/ha): 100% | Post-emergence effectiveness ALOMY (Alopecurus myosuroides [5]; 80 g/ha): 100% | Post-emergence effectiveness AVEFA (Avena fatua [10]; 80 g/ha): 100% | Post-emergence effectiveness ECHCG (Echinochloa crus-galli [6]; 20 g/ha): 100% | Post-emergence effectiveness ECHCG (Echinochloa crus-galli [6]; 80 g/ha): 100% | Post-emergence effectiveness LOLMU (Lolium multiflorum [7]; 20 g/ha): 100% | Post-emergence effectiveness LOLMU (Lolium multiflorum [7]; 80 g/ha): 100% | Post-emergence effectiveness SETVI (Setaria viridis [8]; 20 g/ha): 100% | Post-emergence effectiveness SETVI (Setaria viridis [8]; 80 g/ha): 100%

CCc1cc(C#CC2CC2)cc(C)c1C1=C(OC(=O)C(C)C)C2(CCC(COC)C2)NC1=O (stereo not shown) [Example Ia-12]
Pre-emergence effectiveness ALOMY (Alopecurus myosuroides [1]; 80 g/ha): 100% | Pre-emergence effectiveness ALOMY (Alopecurus myosuroides [1]; 320 g/ha): 100% | Pre-emergence effectiveness AVEFA (Avena fatua [9]; 320 g/ha): 90% | Pre-emergence effectiveness ECHCG (Echinochloa crus-galli [2]; 80 g/ha): 100% | Pre-emergence effectiveness ECHCG (Echinochloa crus-galli [2]; 320 g/ha): 100% | Pre-emergence effectiveness LOLMU (Lolium multiflorum [3]; 80 g/ha): 100% | Pre-emergence effectiveness LOLMU (Lolium multiflorum [3]; 320 g/ha): 100% | Pre-emergence effectiveness SETVI (Setaria viridis [4]; 80 g/ha): 90% | Pre-emergence effectiveness SETVI (Setaria viridis [4]; 320 g/ha): 100% | Post-emergence effectiveness ALOMY (Alopecurus myosuroides [5]; 20 g/ha): 90% | Post-emergence effectiveness ALOMY (Alopecurus myosuroides [5]; 80 g/ha): 90% | Post-emergence effectiveness AVEFA (Avena fatua [10]; 20 g/ha): 100% | Post-emergence effectiveness AVEFA (Avena fatua [10]; 80 g/ha): 100% | Post-emergence effectiveness ECHCG (Echinochloa crus-galli [6]; 20 g/ha): 100% | Post-emergence effectiveness ECHCG (Echinochloa crus-galli [6]; 80 g/ha): 100% | Post-emergence effectiveness LOLMU (Lolium multiflorum [7]; 20 g/ha): 90% | Post-emergence effectiveness LOLMU (Lolium multiflorum [7]; 80 g/ha): 100% | Post-emergence effectiveness SETVI (Setaria viridis [8]; 20 g/ha): 100% | Post-emergence effectiveness SETVI (Setaria viridis [8]; 80 g/ha): 100%

CC#Cc1cc(C)c(C2=C(OC(=O)OCC)C3(CCC(OCCOC)CC3)NC2=O)c(CC)c1 (stereo not shown) [Ia-14]
Pre-emergence effectiveness ALOMY (Alopecurus myosuroides [1]; 80 g/ha): 80% | Pre-emergence effectiveness ALOMY (Alopecurus myosuroides [1]; 320 g/ha): 100% | Pre-emergence effectiveness AVEFA (Avena fatua [9]; 80 g/ha): 80% | Pre-emergence effectiveness AVEFA (Avena fatua [9]; 320 g/ha): 80% | Pre-emergence effectiveness CYPES (Cyperus esculentus): 100% | Pre-emergence effectiveness ECHCG (Echinochloa crus-galli [2]; 80 g/ha): 100% | Pre-emergence effectiveness ECHCG (Echinochloa crus-galli [2]; 320 g/ha): 100% | Pre-emergence effectiveness LOLMU (Lolium multiflorum [3]; 80 g/ha): 90% | Pre-emergence effectiveness LOLMU (Lolium multiflorum [3]; 320 g/ha): 100% | Pre-emergence effectiveness SETVI (Setaria viridis [4]; 80 g/ha): 100% | Pre-emergence effectiveness SETVI (Setaria viridis [4]; 320 g/ha): 100%

CC#Cc1cc(C)c(C2=C(OC(=O)OCC)C3(CCC(COC)CC3)NC2=O)c(CC)c1 (stereo not shown) [Ia-17]
Comparison data for pre-emergence effectiveness AVEFA (Avena fatua [9]; 20 g a.i./ha): 60% | Comparison data for pre-emergence effectiveness CYPES (Cyperus esculentus; 20 g a.i./ha): 100% | Comparison data for pre-emergence effectiveness SETVI (Setaria viridis [4]; 20 g a.i./ha): 100%
